The conditions of the series: Liquid; for mass density: 298.15 K, 101.33 kPa, Pycnometric method; for Normal boiling temperature: Ebulliometric method (Recirculating still).

The structures appear in SMILES notation. ± gives the expanded uncertainty stated by the source.

As for `CC(C)CO` [2-methyl-1-propanol], the mass density worked out at 797.8 ± 0.7 kg/m3 and the Normal boiling temperature came out at 107.77 ± 0.05 °C. As for `CCCCO` [butan-1-ol], the mass density is given as 805.7 ± 0.7 kg/m3. In the case of `CCC(C)O` (stereo not drawn) [butan-2-ol], the mass density came to 802.3 ± 0.7 kg/m3 and the Normal boiling temperature was found to be 99.48 ± 0.05 °C. The matching figures for `CCO` [ethanol]: 785.2 ± 0.7 kg/m3 and 78.31 ± 0.05 °C.

With `CO` [methanol], the mass density turned out to be 786.6 ± 0.7 kg/m3 and the Normal boiling temperature was determined as 64.49 ± 0.05 °C. For `CCCO` [propan-1-ol], the mass density turned out to be 799.6 ± 0.7 kg/m3 and the Normal boiling temperature worked out at 97.06 ± 0.05 °C. The matching figures for `CC(C)O` [propan-2-ol]: 780.8 ± 0.7 kg/m3 and 82.2 ± 0.05 °C.

One may read the mass density as mass per unit of volume.
